Test results published in US20220387358A1, “CERAMIDE ANALOG SACLAC MODULATES SPHINGOLIPID LEVELS AND MCL-1 SPLICING TO INDUCE APOPTOSIS IN ACUTE MYELOID LEUKEMIA” (University of Virginia Patent Foundation, priority 2019, published 2022).
“Also recorded” adds a separate entry of the source.

Experiments:
[1] = tested on: sphingosine in the liver; assay: Sphingosine in the liver after SACLAC administration; type: in vivo, Swiss Webster mice
[2] = biological target: T1, acid ceramidase (AC) (Homo sapiens, UniProt Q13510); assay: Acid ceramidase activity assay (RBM14C12 fluorogenic substrate) in human AML cell lines; type: cell-based; details: SACLAC 2.5 μM, 24-hour treatment
T1 construct: endogenous in cells; host or cells: HL-60/VCR, THP-1 and OCI-AML2 human AML cell lines
T1 sequence (Q13510 143-395 limits assumed): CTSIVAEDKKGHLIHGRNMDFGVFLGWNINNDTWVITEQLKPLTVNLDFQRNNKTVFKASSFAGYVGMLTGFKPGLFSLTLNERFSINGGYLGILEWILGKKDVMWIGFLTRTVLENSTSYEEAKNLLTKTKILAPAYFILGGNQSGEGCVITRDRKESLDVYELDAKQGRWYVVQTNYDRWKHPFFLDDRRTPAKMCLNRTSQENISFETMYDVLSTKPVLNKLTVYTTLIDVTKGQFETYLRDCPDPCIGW
T1 sequence (Q13510 22-142 limits assumed): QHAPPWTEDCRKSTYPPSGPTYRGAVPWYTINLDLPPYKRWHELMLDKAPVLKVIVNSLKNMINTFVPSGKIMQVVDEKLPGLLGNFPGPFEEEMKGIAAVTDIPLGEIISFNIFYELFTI
Description: Cells were seeded at 2×10^4 cells per well in 50 μl Acid ceramidase activity was measured at 24 hours using the RBM14C12 fluorogenic substrate as previously described (22,34).

[3] = tested on: two human AML xenograft mouse models; assay: Leukemic burden across two human AML xenograft mouse models; type: in vivo
From the text: (§1) To assess the efficacy of SACLAC in a transplantable human AML model, two cell line models were used. For the MV4-11 model, 2.5×10^6 luciferase and yellow fluorescent protein (YFP)-expressing MV4-11 cells in HBSS were introduced into 6- to 8-week-old female NSG mice via tail-vein injections. After 10-12 days, engraftment was confirmed using bioluminescence imaging with the IVIS Lumina LT Series III imaging system (PerkinElmer Inc., Waltham, Mass., United States of America). Mice were equally randomized into two groups of three mice and treated with vehicle or SACLAC at 5 mg/kg/day five times per week for 18 total injections. At the end of the treatment, animals were euthanized and peripheral blood was collected for flow cytometry analysis.
(§2) For the U937 model, 1×10^4 luciferase and tdTomato-expressing U937 cells in […] were introduced into 6- to 8-week-old female NSG mice via tail-vein injections. After six days, engraftment was confirmed as stated above. Mice were equally randomized into two groups of five mice and treated with vehicle or SACLAC at 5 mg/kg/day five times per week for 15 total injections. Animals were euthanized and bone marrow was collected for flow cytometry analysis.

[4] = tested on: U937 AML cells; assay: U937 AML xenograft model in NSG mice; type: in vivo; details: 5 mg/kg tail-vein, five times per week, 15 injections
Description: (§3) MV4-11 AML cells expressing luciferase (luc2) and YFP (39) or U937 AML cells expressing luc2 and tdTomato (#72486, Addgene, Watertown, Mass., United States of America) were used to investigate the efficacy of SACLAC in NOD-scid […] (NSG) mice (Jackson Laboratories, Bar Harbor, Me., United States of America). Maximum tolerated dose and pharmacokinetic studies were also performed to determine safety and delivery of compound.
as §2, with “Animals were euthanized and bone marrow was collected for flow cytometry analysis.” left out
Red blood cells (RBC) were lysed with RBC Lysis Buffer (#420301, BioLegend, San Diego, Calif., United States of America) followed by cell surface staining with anti-human CD45 antibodies (#304014, clone HI30, BioLegend, San Diego, Calif., United States of America) and 7AAD (#420404, BioLegend, San Diego, Calif., United States of America) to detect viable human white blood cells (WBC) using an LSR II flow cytometer and BD FACS Diva software. […] Percentage of YFP, tdTomato or hCD45 positive cells was determined in FlowJo software (Becton Dickinson, Franklin Lakes, N.J., United States of America). […]

[5] = tested on: human MV4-11 AML cells; assay: MV4-11 AML xenograft model in NSG mice; type: in vivo
Description: as §3, §1
Red blood cells (RBC) were lysed with RBC Lysis Buffer (#420301, BioLegend, San Diego, Calif., United States of America) followed by cell surface staining with anti-human CD45 antibodies (#304014, clone HI30, BioLegend, San Diego, Calif., United States of America) and 7AAD (#420404, BioLegend, San Diego, Calif., United States of America) to detect viable human white blood cells (WBC) using an LSR II flow cytometer and BD FACS Diva software. Viable cells were identified by gating on 7AAD-negative cells gated from singlets (SSC-A and FSC-W scales), after excluding the debris (SSC-A and FSC-A scales). Percentage of YFP, tdTomato or hCD45 positive cells was determined in FlowJo software (Becton Dickinson, Franklin Lakes, N.J., United States of America). All animal studies were performed with IACUC approval.

[6] = Mouse serum SACLAC levels by formulation and route; type: in vivo
Description: More particularly, SACLAC was dissolved in 2-hydroxypropyl-β-cyclodextrin (β-HPCD) (53). In addition, a SACLAC nanoliposome was prepared.

[7] = tested on: OCI-AML2 cells; assay: Apoptosis by flow cytometry (Annexin V); type: cell-based, human; details: SACLAC 5 μM
Description: Apoptosis in cell lines was assessed after treating 2.5×10^5 cells per ml with drug or vehicle in a 48-well plate for the indicated time points and doses. Primary human AML cells were pre-incubated with SFEM for 48 hours before plating 2×10^5 cells in 24-well plates for the indicated times point and doses. Samples were stained using the Muse Annexin V & Dead Cell Kit (Millipore #MCH100105). Change in mitochondrial membrane potential in cell lines was measured with the Muse® MitoPotential Kit (#MCH100110, MilliporeSigma, Burlington, Mass., United States of America). Caspase activation was measured using the Muse® Caspase 3/7 Assay Kit (#MCH100108, MilliporeSigma, Burlington, Mass., United States of America). For rescue experiments, cells were plated at 2.5×10^4 well in a 96-well plate 24 hours after electroporation. Cells were treated with DMSO or SACLAC for 48 hours and apoptosis was detected as stated above. All kits were used according to manufacturer's protocol. Cells were then analyzed using the Muse® Cell Analyzer (MilliporeSigma, Burlington, Massachusetts, United States of America) (35,36). Experiments included positive and negative controls for proper analysis.

CCCCCCCCCCCCCCC[C@@H](O)[C@H](CO)NC(=O)CCl [SACLAC, N-[(2S,3R)-1,3-dihydroxyoctadecan-2-yl]2-chloroacetamide]
time that liver sphingosine levels were reduced after treatment [1]: at least 6 hours | AC activity reduced by ([2]; HL-60/VCR): 98% | AC activity reduced by ([2]; OCI-AML2): 100% | AC activity reduced by ([2]; THP-1): 71% | reduction in leukemic burden [3]: 37 to 75% | reduction in leukemic cells in the bone marrow [4]: up to 50% | toxicity in treated animals ([5]; 5 mg/kg i.v. in β-HPCD): No overt toxicity; also recorded: non-toxic | body weight of treated animals ([5]; 5 mg/kg i.v. in β-HPCD, course of the study): weight gain; also recorded: did not lose weight | decrease in leukemic burden (circulating leukemic cells in blood) ([5]; 5 mg/kg tail-vein, five times per week, 18 injections): ~75% | clearance ([6]; all treatment groups): rapidly cleared | serum levels ([6]; free SACLAC in DMSO, i.p.): low serum levels | maximum serum level ([6]; maximum over the formulations tested): ~1 µM | serum levels ([6]; β-HPCD, i.v.): improvement | apoptosis ([7]; 12 hours): 79% | apoptosis ([7]; 24 hours): nearly all cells undergoing apoptosis
